# Assay results taken from EP1027887B1, “Matrix controlled release device” (Pfizer Products Inc., priority 1999, dated 2000).
# Tests used:
# Assay type in all cases: physicochemical
# [1] = Water solubility of the drug
# [2] = In vitro dissolution test in 30 ml MFD solution (Reference Example 5)
# Protocol: (§1) Phosphate buffered saline solution (PBS) was prepared comprising 20 mM sodium phosphate, […] potassium phosphate, 87 mM NaCl and 0.2 mM KCl, adjusted to pH 6.5. Four in vitro dissolution tests were performed in 35 mL of the PBS solution at 37°C to test the effectiveness of drug release from the dosage composition of the invention as measured against Controls A, B and C. Drug concentrations over time were determined by periodically withdrawing samples of each of the four solutions, centrifuging the samples for 1 minute at 13,000 rpm to pellet any undissolved drug, sampling the supernate, and analyzing the sample by High Performance Liquid Chromatography (HPLC) to thereby calculate drug concentrations.
# (§2) A Model Fasted Duodenum (MFD) solution which mimics the chemical environment in the small intestine was prepared, comprising the PBS solution described in Example 1 mixed with 14.7 mM sodium taurocholic acid and 2.8 mM of 1-palmitoyl-2-oleyl-sn-glycero-3-phosphocholine. Four in vitro dissolution tests were performed in 500 mL of the so-prepared MFD solution to test the effectiveness of drug release from the dosage composition of the invention against Controls D, E and F. The sampling and analysis were carried out as in Example 1.
# An MFD solution was prepared as in Example 2. Four in vitro dissolution tests were performed in 30 ml of the MFD solution to test the effectiveness of drug release from the dosage composition of the invention against Controls J, K and L. The sampling and analysis were carried out as in Example 1.
# [3] = In vitro dissolution test in 500 mL Model Fasted Duodenum (MFD) solution (Example 2); conditions: 500 mL MFD solution
# Protocol: as §1, §2
# [4] = In vitro dissolution test in 35 mL PBS solution (Example 1); conditions: 35 mL PBS pH 6.5, 37°C
# Protocol: as §1
# [5] = In vitro dissolution test in 40 mL PBS solution (Reference Example 3); conditions: 37°C
# Protocol: as §1
# As a control (Control G), tablets were similarly prepared except rather than using the drug/CAP solid dispersion, a mixture of 1 part crystalline drug to 3 parts CAP was used. As a second control (Control H), 26 mg of crystalline drug alone was used. As a third control (Control I), 105.3 mg of the solid dispersion with no erodible matrix was used. In order to determine the drug release profile of the dosage form of the present invention as compared to the controls, in vitro dissolution tests in 40 mL of the PBS solution of Example 1 at 37°C were performed as in Example 1.
compound,measurement,setting,value
"CN[C@H]1CC[C@@H](c2ccc(Cl)c(Cl)c2)c2ccccc21.Cl (relative stereo) [(1S-cis)-4-(3,4-dichlorophenyl)-1,2,3,4-tetrahydro-N-methyl-1-napthalenamine hydrochloride]",water solubility,[1],70 µg/mL
"CN[C@H]1CC[C@@H](c2ccc(Cl)c(Cl)c2)c2ccccc21.Cl (relative stereo) [Control K, (1S-cis)-4-(3,4-dichlorophenyl)-1,2,3,4-tetrahydro-N-methyl-1-napthalenamine hydrochloride]",AUC,[2]; time 0 min,0 µg·min/mL
same,[Drug],[2]; time 0 min,0 µg/mL
same,AUC,[2]; time 10 min,1073 µg·min/mL
same,[Drug],[2]; time 10 min,0 µg/mL
same,AUC,[2]; time 20 min,5459 µg·min/mL
same,[Drug],[2]; time 20 min,358 µg/mL
same,AUC,[2]; time 40 min,16706 µg·min/mL
same,[Drug],[2]; time 40 min,520 µg/mL
same,AUC,[2]; time 90 min,37083 µg·min/mL
same,[Drug],[2]; time 90 min,605 µg/mL
same,AUC,[2]; time 120 min,40231 µg·min/mL
same,[Drug],[2]; time 120 min,210 µg/mL
same,AUC,[2]; time 240 min,52796 µg·min/mL
same,[Drug],[2]; time 240 min,130 µg/mL
same,AUC,[2]; time 360 min,70528 µg·min/mL
same,[Drug],[2]; time 360 min,159 µg/mL
same,AUC,[2]; time 540 min,108647 µg·min/mL
same,[Drug],[2]; time 540 min,136 µg/mL
same,[Drug],[2]; time 1200 min,128 µg/mL
"CON(C)C(=O)C(O)[C@H](Cc1ccccc1)NC(=O)c1cc2cc(Cl)ccc2[nH]1 (stereo in doubt) [Control E, [R-(R*S*)]-5 chloro-N-[2-hydroxy-3-[(methoxymethylamino)-3-oxo-1(phenylmethyl)propyl]propyl]-1H-indole-2-carboxymide]",AUC,[3]; time 0 min,0 µg·min/mL
same,[Drug],[3]; time 0 min,0.0 µg/mL
same,AUC,[3]; time 10 min,21 µg·min/mL
same,[Drug],[3]; time 10 min,6.9 µg/mL
same,AUC,[3]; time 20 min,72 µg·min/mL
same,[Drug],[3]; time 20 min,3.2 µg/mL
same,AUC,[3]; time 40 min,172 µg·min/mL
same,[Drug],[3]; time 40 min,6.8 µg/mL
same,AUC,[3]; time 90 min,795 µg·min/mL
same,[Drug],[3]; time 90 min,18.1 µg/mL
same,AUC,[3]; time 120 min,1281 µg·min/mL
same,[Drug],[3]; time 120 min,14.3 µg/mL
same,AUC,[3]; time 180 min,2219 µg·min/mL
same,[Drug],[3]; time 180 min,17.0 µg/mL
same,AUC,[3]; time 240 min,2992 µg·min/mL
same,[Drug],[3]; time 240 min,8.8 µg/mL
same,AUC,[3]; time 360 min,4030 µg·min/mL
same,[Drug],[3]; time 360 min,8.5 µg/mL
same,AUC,[3]; time 525 min,5756 µg·min/mL
same,[Drug],[3]; time 525 min,10.7 µg/mL
same,AUC,[3]; time 720 min,7525 µg·min/mL
same,[Drug],[3]; time 720 min,9.0 µg/mL
same,[Drug],[3]; time 1200 min,8.0 µg/mL
"O=C(N[C@@H](Cc1ccccc1)[C@@H](O)C(=O)N1C[C@@H](O)[C@@H](O)C1)c1cc2cc(Cl)ccc2[nH]1 [Control B, 5-chloro-1H-indole-2-carboxylic acid [(1S) -benzyl-3-((3R,4S) -dihydroxypyrrolidin-1-yl-) - (2R) -hydroxy-3-oxypropyl]amide]",AUC,[4]; time 0 min,0 µg·min/mL
same,[Drug],[4]; time 0 min,0.0 µg/mL
same,AUC,[4]; time 4 min,180 µg·min/mL
same,[Drug],[4]; time 4 min,90.1 µg/mL
same,AUC,[4]; time 10 min,754 µg·min/mL
same,[Drug],[4]; time 10 min,101.0 µg/mL
same,AUC,[4]; time 20 min,1753 µg·min/mL
same,[Drug],[4]; time 20 min,98.8 µg/mL
same,AUC,[4]; time 40 min,4402 µg·min/mL
same,[Drug],[4]; time 40 min,166.1 µg/mL
same,AUC,[4]; time 90 min,12252 µg·min/mL
same,[Drug],[4]; time 90 min,147.9 µg/mL
same,AUC,[4]; time 120 min,16937 µg·min/mL
same,[Drug],[4]; time 120 min,164.5 µg/mL
same,AUC,[4]; time 180 min,25991 µg·min/mL
same,[Drug],[4]; time 180 min,137.3 µg/mL
same,AUC,[4]; time 240 min,34362 µg·min/mL
same,[Drug],[4]; time 240 min,141.8 µg/mL
same,AUC,[4]; time 360 min,52528 µg·min/mL
same,[Drug],[4]; time 360 min,161.0 µg/mL
same,AUC,[4]; time 525 min,80574 µg·min/mL
same,[Drug],[4]; time 525 min,179.0 µg/mL
same,AUC,[4]; time 720 min,113346 µg·min/mL
same,[Drug],[4]; time 720 min,157.2 µg/mL
"O=C(N[C@@H](Cc1ccccc1)[C@@H](O)C(=O)N1C[C@@H](O)[C@@H](O)C1)c1cc2cc(Cl)ccc2[nH]1 [Control H, 5-chloro-1H-indole-2-carboxylic acid [(1S) -benzyl-3-((3R,4S) -dihydroxypyrrolidin-1-yl-) - (2R) -hydroxy-3-oxypropyl]amide]",AUC,[5]; time 0 min,0 µg·min/mL
same,[Drug],[5]; time 0 min,0.0 µg/mL
same,AUC,[5]; time 10 min,0 µg·min/mL
same,[Drug],[5]; time 10 min,107.8 µg/mL
same,AUC,[5]; time 20 min,323 µg·min/mL
same,[Drug],[5]; time 20 min,130.1 µg/mL
same,AUC,[5]; time 40 min,1513 µg·min/mL
same,[Drug],[5]; time 40 min,109.1 µg/mL
same,AUC,[5]; time 90 min,3906 µg·min/mL
same,[Drug],[5]; time 90 min,118.1 µg/mL
same,AUC,[5]; time 120 min,9587 µg·min/mL
same,[Drug],[5]; time 120 min,121.8 µg/mL
same,AUC,[5]; time 180 min,13186 µg·min/mL
same,[Drug],[5]; time 180 min,151.7 µg/mL
same,AUC,[5]; time 240 min,21392 µg·min/mL
same,[Drug],[5]; time 240 min,170.4 µg/mL
same,AUC,[5]; time 360 min,31055 µg·min/mL
same,[Drug],[5]; time 360 min,135.3 µg/mL
same,AUC,[5]; time 540 min,49395 µg·min/mL
same,[Drug],[5]; time 540 min,134.8 µg/mL
same,AUC,[5]; time 720 min,73701 µg·min/mL
same,[Drug],[5]; time 720 min,168.3 µg/mL
CON(C)C(=O)[C@H](O)[C@H](Cc1ccccc1)NC(=O)c1cc2cc(Cl)ccc2[nH]1 [[R-(R*S*)]-5 chloro-N-[2-hydroxy-3-[(methoxymethylamino)-3-oxo-1(phenylmethyl)propyl]propyl]-1H-indole-2-carboxymide],solubility,[1],1 µg/mL
